In US12428406B2 (PMV Pharmaceuticals, Inc., priority 2019, dated 2025):

Biological target: T1, p53 Y220C (Homo sapiens, UniProt P04637, Y220C)
T1 construct: The recombinant protein was a truncation mutant containing only amino acids 94-312 of p53; made in house; host or cells: E. coli
Assay: In vitro DNA binding activity assay (HTRF / TR-FRET): stabilization of p53 Y220C and increase of its DNA binding activity
Type: biochemical
Settings: recombinant His-tagged p53 Y220C DNA binding domain (aa 94-312), biotin-labeled consensus DNA, incubated at 27° C. or 29° C. for 60 min
How it was run: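 Compound effect on DNA binding of recombinant His-p53 Y220C (E. coli) to biotin-labeled consensus DNA, expressed as SC150, the concentration giving 50% increase versus untreated. Serial 3-fold DMSO dilutions of 4.5 mM stocks; room-temperature steps of 15 then 20 min.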

T1 sequence (P04637 94-312, change not shown): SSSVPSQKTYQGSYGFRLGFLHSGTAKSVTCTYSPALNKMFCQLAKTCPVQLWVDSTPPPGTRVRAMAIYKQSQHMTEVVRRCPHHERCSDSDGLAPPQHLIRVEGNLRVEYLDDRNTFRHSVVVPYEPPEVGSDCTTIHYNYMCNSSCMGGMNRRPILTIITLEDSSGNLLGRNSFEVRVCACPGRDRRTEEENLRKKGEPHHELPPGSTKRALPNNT

Row | SMILES | SC150 (concentration of the compound required to increase the DNA binding activity by 50%)
1 | COc1cc(S(C)(=O)=O)ccc1NCC#Cc1cc2c(N[C@H]3CC[C@H](N4CCC5(CCOCC5)CC4)CC3)cccc2n1CC(F)(F)F [Compound 414A, 2-{3-[(4-methane-sulfonyl-2-methoxy-phenyl)amino]prop-1-yn-1-yl}-N-[(1R,4R)-4-{3-oxa-9-azaspiro[5.5]undecan-9-yl}cyclohexyl]-1-(2,2,2-trifluoroethyl)-1H-indol-4-amine] | + (+ = 0 μM ≤ SC150 < 0.05 μM)
2 | COc1cc(S(N)(=O)=O)ccc1NCC#Cc1cc2c(N[C@H]3CC[C@H](N4CCCC4)CC3)cccc2n1CC(F)(F)F [Compound 422A, 3-methoxy-4-{[3-(4-{[(1R,4R)-4-(pyrrolidin-1-yl)cyclohexyl]amino}-1-(2,2,2-trifluoroethyl)-1H-indol-2-yl)prop-2-yn-1-yl]amino}benzene-1-sulfonamide] | + (+ = 0 μM ≤ SC150 < 0.05 μM)
3 | COc1cc(S(N)(=O)=O)ccc1NCC#Cc1cc2c(N[C@H]3CC[C@H](N4CCC(OC)C4)CC3)cccc2n1CC(F)(F)F (stereo partly drawn) [Compound 427A, 3-methoxy-4-{[3-(4-{[(1R,4R)-4-(3-methoxypyrrolidin-1-yl)cyclohexyl]amino}-1-(2,2,2-trifluoroethyl)-1H-indol-2-yl)prop-2-yn-1-yl]amino}benzene-1-sulfonamide] | + (+ = 0 μM ≤ SC150 < 0.05 μM)
4 | CNC(=O)c1ccc(NCC#Cc2cc3c(N[C@H]4CC[C@H](N5CCC(OC)C5)CC4)cccc3n2CC(F)(F)F)c(OC)c1 (stereo partly drawn) [Compound 428A, 3-methoxy-N-methyl-4-{[3-(4-{[(1R,4R)-4-(3-methoxypyrrolidin-1-yl)cyclohexyl]amino}-1-(2,2,2-trifluoroethyl)-1H-indol-2-yl)prop-2-yn-1-yl]amino}benzamide] | + (+ = 0 μM ≤ SC150 < 0.05 μM)
5 | COc1cc(S(N)(=O)=O)ccc1NCC#Cc1cc2c(N[C@H]3CC[C@H](N4CC5COCC5C4)CC3)cccc2n1CC(F)(F)F (stereo partly drawn) [Compound 430A, 3-methoxy-4-{[3-(4-{[(1R,4R)-4-{hexahydro-1H-furo[3,4-c]pyrrol-5-yl}cyclohexyl]amino}-1-(2,2,2-trifluoroethyl)-1H-indol-2-yl)prop-2-yn-1-yl]amino}benzene-1-sulfonamide] | + (+ = 0 μM ≤ SC150 < 0.05 μM)
6 | COc1cc(S(C)(=O)=O)ccc1NCC#Cc1cc2c(N[C@H]3CC[C@H](N4CC5COCC5C4)CC3)cccc2n1CC(F)(F)F (stereo partly drawn) [Compound 432A, 2-{3-[(4-methane-sulfonyl-2-methoxy-phenyl)amino]prop-1-yn-1-yl}-N-[(1R,4R)-4-{hexahydro-1H-furo[3,4-c]pyrrol-5-yl}cyclohexyl]-1-(2,2,2-trifluoroethyl)-1H-indol-4-amine] | + (+ = 0 μM ≤ SC150 < 0.05 μM)
7 | CNC(=O)c1ccc(NCC#Cc2cc3c(N[C@H]4CC[C@H](N5CC6COCC6C5)CC4)cccc3n2CC(F)(F)F)c(OC)c1 (stereo partly drawn) [Compound 434A, 3-methoxy-N-methyl-4-{[3-(4-{[(1R,4R)-4-{hexahydro-1H-furo[3,4-c]pyrrol-5-yl}cyclohexyl]amino}-1-(2,2,2-trifluoroethyl)-1H-indol-2-yl)prop-2-yn-1-yl]amino}benzamide] | + (+ = 0 μM ≤ SC150 < 0.05 μM)
8 | COc1cc(S(C)(=O)=O)ccc1NCC#Cc1cc2c(N[C@H]3CC[C@H](N4CCC(C(F)(F)F)CC4)CC3)cccc2n1CC(F)(F)F [Compound 436A, 2-{3-[(4-methane-sulfonyl-2-methoxy-phenyl)amino]prop-1-yn-1-yl}-N-[(1R,4R)-4-[4-(trifluoromethyl)piperidin-1-yl]cyclohexyl]-1-(2,2,2-trifluoroethyl)-1H-indol-4-amine] | + (+ = 0 μM ≤ SC150 < 0.05 μM)
9 | CNC(=O)c1ccc(NCC#Cc2cc3c(N[C@H]4CC[C@H](N5CCC(S(C)(=O)=O)CC5)CC4)cccc3n2CC(F)(F)F)c(OC)c1 [Compound 444A, 3-methoxy-N-methyl-4-{[3-(4-{[(1R,4R)-4-(4-methane-sulfonylpiperidin-1-yl)cyclohexyl]amino}-1-(2,2,2-trifluoroethyl)-1H-indol-2-yl)prop-2-yn-1-yl]amino}benzamide] | + (+ = 0 μM ≤ SC150 < 0.05 μM)
10 | COc1cc(S(N)(=O)=O)ccc1NCC#Cc1cc2c(N[C@H]3CC[C@H](N4CCC(S(C)(=O)=O)CC4)CC3)cccc2n1CC(F)(F)F [Compound 446A, 3-methoxy-4-{[3-(4-{[(1R,4R)-4-(4-methanesulfonyl-piperidin-1-yl)cyclo-hexyl]amino}-1-(2,2,2-trifluoroethyl)-1H-indol-2-yl)prop-2-yn-1-yl]amino}benzene-1-sulfonamide] | + (+ = 0 μM ≤ SC150 < 0.05 μM)
11 | COc1cc(S(C)(=O)=O)ccc1NCC#Cc1cc2c(N[C@@H]3CCC[C@H](n4nn[nH]c4=O)C3)cccc2n1CC(F)(F)F [Compound 448A, 1-[(1S,3R)-3-[(2-{3-[(4-methanesulfonyl-2-methoxyphenyl)amino]prop-1-yn-1-yl}-1-(2,2,2-trifluoroethyl)-1H-indol-4-yl)amino]cyclo-hexyl]-4,5-dihydro-1H-1,2,3,4-tetrazol-5-one] | ++ (++ = 0.05 μM ≤ SC150 < 0.1 μM)
12 | COCC(O)CN1CCC(Nc2cccc3c2cc(C#CCNc2ccc(S(C)(=O)=O)cc2OC)n3CC(F)(F)F)C1 (stereo not drawn) [Compound 455A, 1-{3-[(2-{3-{(4-methanesulfonyl-2-methoxyphenyl)amino]prop-1-yn-1-yl}-1-(2,2,2-trifluoroethyl)-1H-indol-4-yl)amino]pyrrolidin-1-yl}-3-methoxypropan-2-ol] | + (+ = 0 μM ≤ SC150 < 0.05 μM)

Other lines, results leading:

Row | SC150 (concentration of the compound required to increase the DNA binding activity by 50%) | SMILES
13 | + (+ = 0 μM ≤ SC150 < 0.05 μM) | CNC(=O)c1ccc(NCC#Cc2cc3c(N[C@H]4CC[C@H](N5CCC6(CCOCC6)CC5)CC4)cccc3n2CC(F)(F)F)c(OC)c1 [Compound 416A, 3-methoxy-N-methyl-4-{[3-(4-{[(1R,4R)-4-{3-oxa-9-azaspiro[5.5]undecan-9-yl}cyclohexyl]amino}-1-(2,2,2-trifluoroethyl)-1H-indol-2-yl)prop-2-yn-1-yl]amino}benzamide]
14 | + (+ = 0 μM ≤ SC150 < 0.05 μM) | COc1cc(S(N)(=O)=O)ccc1NCC#Cc1cc2c(N[C@H]3CC[C@H](N4CCC5(CCOCC5)CC4)CC3)cccc2n1CC(F)(F)F [Compound 418A, 3-methoxy-4-{[3-(4-{[(1R,4R)-4-{3-oxa-9-azaspiro[5.5]undecan-9-yl}cyclohexyl]amino}-1-(2,2,2-trifluoroethyl)-1H-indol-2-yl)prop-2-yn-1-yl]amino}benzene-1-sulfonamide]
15 | + (+ = 0 μM ≤ SC150 < 0.05 μM) | CNC(=O)c1ccc(NCC#Cc2cc3c(N[C@H]4CC[C@H](N5CCCC5)CC4)cccc3n2CC(F)(F)F)c(OC)c1 [Compound 420A, 3-methoxy-N-methyl-4-{[3-(4-{[(1R,4R)-4-(pyrrolidin-1-yl)cyclohexyl]amino}-1-(2,2,2-trifluoroethyl)-1H-indol-2-yl)prop-2-yn-1-yl]amino}benzamide]
16 | + (+ = 0 μM ≤ SC150 < 0.05 μM) | COc1cc(S(C)(=O)=O)ccc1NCC#Cc1cc2c(N[C@H]3CC[C@H](N4CCCC4)CC3)cccc2n1CC(F)(F)F [Compound 424A, 2-{3-[(4-methane-sulfonyl-2-methoxy-phenyl)amino]prop-1-yn-1-yl}-N-[(1R,4R)-4-(pyrrolidin-1-yl)cyclohexyl]-1-(2,2,2-trifluoroethyl)-1H-indol-4-amine]
17 | + (+ = 0 μM ≤ SC150 < 0.05 μM) | COc1cc(S(C)(=O)=O)ccc1NCC#Cc1cc2c(N[C@H]3CC[C@H](N4CCC(OC)C4)CC3)cccc2n1CC(F)(F)F (stereo partly drawn) [Compound 426A, 2-{3-[(4-methane-sulfonyl-2-methoxy-phenyl)amino]prop-1-yn-1-yl}-N-[(1R,4R)-4-(3-methoxypyrrolidin-1-yl)cyclohexyl]-1-(2,2,2-trifluoroethyl)-1H-indol-4-amine]
18 | + (+ = 0 μM ≤ SC150 < 0.05 μM) | CNC(=O)c1ccc(NCC#Cc2cc3c(N[C@H]4CC[C@H](N5CCC(C(F)(F)F)CC5)CC4)cccc3n2CC(F)(F)F)c(OC)c1 [Compound 438A, 3-methoxy-N-methyl-4-{[3-(4-{[(1R,4R)-4-[4-(trifluoro-methyl)piperidin-1-yl]cyclohexyl]amino}-1-(2,2,2-trifluoroethyl)-1H-indol-2-yl)prop-2-yn-1-yl]amino}benzamide]
19 | + (+ = 0 μM ≤ SC150 < 0.05 μM) | COc1cc(S(N)(=O)=O)ccc1NCC#Cc1cc2c(N[C@H]3CC[C@H](N4CCC(C(F)(F)F)CC4)CC3)cccc2n1CC(F)(F)F [Compound 440A, 3-methoxy-4-{[3-(4-{[(1R,4R)-4-[4-(trifluoromethyl)piperidin-1-yl]cyclohexyl]amino}-1-(2,2,2-trifluoroethyl)-1H-indol-2-yl)prop-2-yn-1-yl]amino}benzene-1-sulfonamide]
20 | + (+ = 0 μM ≤ SC150 < 0.05 μM) | COc1cc(S(C)(=O)=O)ccc1NCC#Cc1cc2c(N[C@H]3CC[C@H](N4CCC(S(C)(=O)=O)CC4)CC3)cccc2n1CC(F)(F)F [Compound 442A, 2-{3-[(4-methane-sulfonyl-2-methoxy-phenyl)amino]prop-1-yn-1-yl}-N-[(1R,4R)-4-(4-methanesulfonylpiperidin-1-yl)cyclohexyl]-1-(2,2,2-trifluoroethyl)-1H-indol-4-amine]
21 | ++++ (++++ = 0.2 μM ≤ SC150 < 1 μM) | COCC(O)CN1CCC(Nc2cccc3c2cc(C#CCNC(=O)c2ccccc2)n3CC(F)(F)F)C1 (stereo not drawn) [Compound 456A, N-[3-(4-{[1-(2-hydroxy-3-methoxypropyl)pyrrolidin-3-yl]amino}-1-(2,2,2-trifluoroethyl)-1H-indol-2-yl)prop-2-yn-1-yl]benzamide]
